Measurements: patent publication US7482379B2, “Propenoyl hydrazides” (priority 2004, dated 2009)

Columns and labels:
Caspase-2 = target: T1, Caspase-2 (Homo sapiens, UniProt P42575); assay: Caspase-2 progress curve inhibition assay; settings: second-order rate constant; Cbz-VDVAD-AFC substrate; Pipes buffer pH 7.2
T1 sequence (P42575 170-333 limits assumed): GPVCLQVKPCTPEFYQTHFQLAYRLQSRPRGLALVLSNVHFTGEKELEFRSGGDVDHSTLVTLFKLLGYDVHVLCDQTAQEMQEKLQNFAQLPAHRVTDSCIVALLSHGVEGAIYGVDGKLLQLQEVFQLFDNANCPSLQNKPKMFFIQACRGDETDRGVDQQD
T1 sequence (P42575 348-452 limits assumed): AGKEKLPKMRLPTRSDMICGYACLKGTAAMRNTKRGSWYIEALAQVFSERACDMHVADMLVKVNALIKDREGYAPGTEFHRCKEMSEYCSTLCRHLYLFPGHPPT

Caspase-3 = target: T2, Caspase-3 (Homo sapiens, UniProt P42574); assay: Caspase-3 progress curve inhibition assay; settings: second-order rate constant; Ac-DEVD-AMC substrate; Pipes buffer pH 7.2
T2 sequence (P42574 29-175 limits assumed): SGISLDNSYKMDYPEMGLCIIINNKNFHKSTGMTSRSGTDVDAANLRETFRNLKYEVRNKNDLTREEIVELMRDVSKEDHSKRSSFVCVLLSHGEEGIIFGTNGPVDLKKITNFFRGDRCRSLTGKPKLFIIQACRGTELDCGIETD
T2 sequence (P42574 176-277 limits assumed): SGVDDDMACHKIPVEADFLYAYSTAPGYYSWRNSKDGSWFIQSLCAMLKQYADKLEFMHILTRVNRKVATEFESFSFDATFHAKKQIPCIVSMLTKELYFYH

Caspase-6 = target: T3, Caspase-6 (Homo sapiens, UniProt P55212); assay: Caspase-6 progress curve inhibition assay; settings: second-order rate constant; Ac-DEVD-AMC substrate; Pipes buffer pH 7.2
T3 sequence (P55212 24-179 limits assumed): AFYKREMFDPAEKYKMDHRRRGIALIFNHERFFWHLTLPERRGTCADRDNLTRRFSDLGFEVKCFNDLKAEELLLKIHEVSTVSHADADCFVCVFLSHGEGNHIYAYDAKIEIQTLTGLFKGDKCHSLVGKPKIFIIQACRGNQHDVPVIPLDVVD
T3 sequence (P55212 194-293 limits assumed): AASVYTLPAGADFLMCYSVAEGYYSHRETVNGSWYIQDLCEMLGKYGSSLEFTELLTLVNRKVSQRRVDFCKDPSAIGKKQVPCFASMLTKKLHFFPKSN

Caspase-7 = target: T4, Caspase-7 (Homo sapiens, UniProt P55210); assay: Caspase-7 progress curve inhibition assay; settings: second-order rate constant; Ac-DEVD-AMC substrate; Pipes buffer pH 7.2
T4 sequence (P55210 24-198 limits assumed): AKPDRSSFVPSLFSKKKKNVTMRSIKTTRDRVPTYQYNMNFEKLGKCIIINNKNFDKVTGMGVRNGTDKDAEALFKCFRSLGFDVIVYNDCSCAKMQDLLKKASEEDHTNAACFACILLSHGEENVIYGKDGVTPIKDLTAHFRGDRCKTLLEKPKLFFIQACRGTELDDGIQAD
T4 sequence (P55210 207-303 limits assumed): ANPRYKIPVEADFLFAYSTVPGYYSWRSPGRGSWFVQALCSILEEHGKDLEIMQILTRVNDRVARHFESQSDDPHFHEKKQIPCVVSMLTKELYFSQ

Caspase-8 = Caspase-8 (Homo sapiens, UniProt Q14790); assay: Caspase-8 progress curve inhibition assay; settings: second-order rate constant; Ac-DEVD-AMC substrate; Pipes buffer pH 7.2
Caspase-9 = target: T5, Caspase-9 (Homo sapiens, UniProt P55211); assay: Caspase-9 progress curve inhibition assay; settings: second-order rate constant; Ac-LEHD-AFC substrate; Hepes buffer pH 7.0 with 0.7 M sodium citrate
T5 sequence (P55211 1-315 limits assumed): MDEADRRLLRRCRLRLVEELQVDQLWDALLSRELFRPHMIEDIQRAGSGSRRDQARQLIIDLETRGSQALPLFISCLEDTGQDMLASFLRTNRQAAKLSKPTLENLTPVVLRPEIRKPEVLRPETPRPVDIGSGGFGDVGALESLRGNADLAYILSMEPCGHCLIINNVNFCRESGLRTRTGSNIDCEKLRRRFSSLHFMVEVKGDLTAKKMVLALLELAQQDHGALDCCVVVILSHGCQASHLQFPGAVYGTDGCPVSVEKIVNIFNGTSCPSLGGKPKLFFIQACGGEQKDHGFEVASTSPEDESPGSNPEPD
T5 sequence (P55211 331-416 limits assumed): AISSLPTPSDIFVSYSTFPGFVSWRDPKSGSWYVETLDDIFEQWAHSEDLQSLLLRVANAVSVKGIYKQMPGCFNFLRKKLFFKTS

Caspase-10 = target: T6, Caspase-10 (Homo sapiens, UniProt Q92851); assay: Caspase-10 progress curve inhibition assay; settings: second-order rate constant; Ac-DEVD-AMC substrate; Hepes/PEG buffer pH 7.0
T6 sequence (Q92851 220-415 limits assumed): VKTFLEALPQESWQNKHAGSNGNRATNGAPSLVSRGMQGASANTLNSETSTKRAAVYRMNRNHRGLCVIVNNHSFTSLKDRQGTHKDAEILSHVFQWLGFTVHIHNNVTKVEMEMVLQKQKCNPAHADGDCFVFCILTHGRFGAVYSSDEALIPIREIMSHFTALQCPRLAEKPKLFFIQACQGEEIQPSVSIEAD
T6 sequence (Q92851 416-521 limits assumed): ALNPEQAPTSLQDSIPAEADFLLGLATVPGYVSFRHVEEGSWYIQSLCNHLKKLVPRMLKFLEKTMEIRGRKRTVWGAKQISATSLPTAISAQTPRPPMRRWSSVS

Chain of Caspase-8 (Q14790 217-374 limits assumed): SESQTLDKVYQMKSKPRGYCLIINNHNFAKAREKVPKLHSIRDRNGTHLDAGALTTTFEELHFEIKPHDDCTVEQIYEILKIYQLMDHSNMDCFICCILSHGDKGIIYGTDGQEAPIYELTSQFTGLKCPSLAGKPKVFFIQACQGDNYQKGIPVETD
Chain of Caspase-8 (Q14790 385-479 limits assumed): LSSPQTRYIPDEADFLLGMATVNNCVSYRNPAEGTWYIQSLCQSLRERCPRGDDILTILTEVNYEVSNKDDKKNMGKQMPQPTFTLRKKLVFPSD

Row | SMILES | k2 Caspase-2 (Caspase-2) [M⁻¹ s⁻¹] | k2 Caspase-3 (Caspase-3) | k2 Caspase-6 (Caspase-6) | k2 Caspase-7 (Caspase-7) | k2 Caspase-8 (Caspase-8) | k2 Caspase-9 (Caspase-9) | k2 Caspase-10 (Caspase-10)
1 | CC(C)[C@H](NC(=O)[C@H](CCC(=O)O)NC(=O)[C@H](CC(=O)O)NC(=O)OCc1ccccc1)C(=O)NN(CC(=O)O)C(=O)/C=C/C(=O)N(C)Cc1ccccc1 (relative stereo) [Cbz-Asp-Glu-Val-AAsp-CH═CH—CON(CH3)CH2Ph, N^1-trans-(3-Benzylmethylcarbamoylpropenoyl)-N^2—(N-benzyloxycarbonylaspartylglutamylvalyl)-N^1-carboxymethylhydrazine] | 660 | 2,640,000 M^−1s^−1 | 9,500 M^−1s^−1 | 275,000 M^−1s^−1 | 90,300 M^−1s^−1 | 820 M⁻¹ s⁻¹ | 29,400 M^−1s^−1
2 | CC(C)[C@H](NC(=O)[C@H](CCC(=O)O)NC(=O)[C@H](CC(=O)O)NC(=O)OCc1ccccc1)C(=O)NN(CC(=O)O)C(=O)/C=C/C(=O)NCCc1ccccc1 (relative stereo) [Cbz-Asp-Glu-Val-AAsp-CH═CH—CONHCH2CH2Ph, N^2—(N-Benzyloxycarbonylaspartylglutamylvalyl)-N^1-carboxymethyl-N^1-trans-(3-phenethylcarbamoylpropenoyl)hydrazine] | 120 | 1,950,000 M^−1s^−1 | 3,470 M^−1s^−1 | 267,000 M^−1s^−1 | 129,000 M^−1s^−1 | 655 M⁻¹ s⁻¹ | 31,400 M^−1s^−1
3 | CC(C)[C@H](NC(=O)[C@H](CCC(=O)O)NC(=O)[C@H](CC(=O)O)NC(=O)OCc1ccccc1)C(=O)NN(CC(=O)O)C(=O)/C=C/C(=O)NCc1ccccc1 (relative stereo) [Cbz-Asp-Glu-Val-AAsp-CH═CH—CONHCH2Ph, N^1-trans-(3-Benzylcarbamoylpropenoyl)-N^2—(N-benzyloxycarbonylaspartylglutamylvalyl)-N^1-carboxymethylhydrazine] | 130 | 1,750,000 M^−1s^−1 | 3,210 M^−1s^−1 | 249,000 M^−1s^−1 | 78,235 M^−1s^−1 | 2,010 M^−1s^−1 | 19,400 M^−1s^−1
4 | CC[C@H](C)[C@H](NC(=O)OCc1ccccc1)C(=O)N[C@@H](CCC(=O)O)C(=O)N[C@H](C(=O)NN(CC(=O)O)C(=O)/C=C/C(=O)N(Cc1ccccc1)Cc1ccccc1)[C@@H](C)O (relative stereo) [Cbz-Ile-Glu-Thr-AAsp-CH═CH—CON(CH2Ph)2, N^2—(N-Benzyloxycarbonylisoleucylglutamylthreonyl)-N^1-carboxylmethyl-N^1-trans-(3-dibenzylcarbamoylpropenoyl)hydrazine] | 76 | 9,570 M^−1s^−1 | 83,900 M^−1s^−1 | 1,140 M^−1s^−1 | 39,500 M^−1s^−1 | 1,930 M^−1s^−1 | 7,930 M^−1s^−1
5 | CC[C@H](C)[C@H](NC(=O)OCc1ccccc1)C(=O)N[C@@H](CCC(=O)O)C(=O)N[C@H](C(=O)NN(CC(=O)O)C(=O)/C=C/C(=O)N(C)Cc1ccccc1)[C@@H](C)O (relative stereo) [Cbz-Ile-Glu-Thr-AAsp-CH═CH—CON(CH3)CH2Ph, N^1-trans-(3-Benzylmethylcarbamoylpropenoyl)-N^2—(N-benzyloxycarbonylisoleucylglutamylthreonyl)-N^1-carboxylmethylhydrazine] | 95 | 6,000 M^−1s^−1 | 45,900 M^−1s^−1 | 390 M⁻¹ s⁻¹ | 59,700 M^−1s^−1 | 845 M⁻¹ s⁻¹ | 8,500 M^−1s^−1
6 | CC[C@H](C)[C@H](NC(=O)OCc1ccccc1)C(=O)N[C@@H](CCC(=O)O)C(=O)N[C@H](C(=O)NN(CC(=O)O)C(=O)/C=C/C(=O)NCCc1ccccc1)[C@@H](C)O (relative stereo) [Cbz-Ile-Glu-Thr-AAsp-CH═CH—CONHCH2CH2Ph, N^2—(N-BenzyloxycarbonylisoleucylglutamyIthreonyl)-N^1-carboxylmethyl-N^1-trans-(3-phenyethylcarbamoylpropenoyl)hydrazine] | 30 | 4,750 M^−1s^−1 | 18,700 M^−1s^−1 | 440 M⁻¹ s⁻¹ | 71,000 M^−1s^−1 | 615 M⁻¹ s⁻¹ | 8,290 M^−1s^−1
7 | CC[C@H](C)[C@H](NC(=O)OCc1ccccc1)C(=O)N[C@@H](CCC(=O)O)C(=O)N[C@H](C(=O)NN(CC(=O)O)C(=O)/C=C/C(=O)NCc1ccccc1)[C@@H](C)O (relative stereo) [Cbz-Ile-Glu-Thr-AAsp-CH═CH—CONHCH2Ph, N^1-trans-(3-Benzylcarbamoylpropenoyl)-N^2—(N-benzyloxycarbonylisoleucylglutamylthreonyl)-N^1-carboxylmethylhydrazine] | 15 | 2,250 M^−1s^−1 | 16,800 M^−1s^−1 | 100 M⁻¹ s⁻¹ | 61,300 M^−1s^−1 | 440 M⁻¹ s⁻¹ | 503 M⁻¹ s⁻¹
8 | CC[C@H](C)[C@H](NC(=O)OCc1ccccc1)C(=O)N[C@@H](CCC(=O)O)C(=O)N[C@H](C(=O)NN(CC(=O)O)C(=O)/C=C/C(=O)Nc1ccccc1)[C@@H](C)O (relative stereo) [Cbz-Ile-Glu-Thr-AAsp-CH═CH—CONHPh, N^2—(N-Benzyloxycarbonylisoleucylglutamylthreonyl)-N^1-carboxylmethyl-N^1-trans-(3-phenylcarbamoylpropenoyl)hydrazine] | 365 | 7,030 M^−1s^−1 | 99,200 M^−1s^−1 | 920 M⁻¹ s⁻¹ | 245,000 M^−1s^−1 | 940 M⁻¹ s⁻¹ | 9,210 M^−1s^−1
9 | CC(C)C[C@H](NC(=O)OCc1ccccc1)C(=O)N[C@@H](CCC(=O)O)C(=O)N[C@H](C(=O)NN(CC(=O)O)C(=O)/C=C/C(=O)N(Cc1ccccc1)Cc1ccccc1)[C@@H](C)O (relative stereo) [Cbz-Leu-Glu-Thr-AAsp-CH═CH—CON(CH2Ph)2, N^2—(N-Benzyloxycarbonylleucylglutamylthreonyl)-N^1-carboxylmethyl-N^1-trans-(3-dibenzylcarbamoylpropenoyl)hydrazine] | 110 | 8,630 M^−1s^−1 | 14,100 M^−1s^−1 | 760 M⁻¹ s⁻¹ | 129,000 M^−1s^−1 | 1,105 M^−1s^−1 | 8,080 M^−1s^−1
